How the values were obtained:
PDE4 = assay: Evaluation of PDE4 inhibition (Scintillation Proximity Assay); type: biochemical; conditions: SPA, [3H]-cAMP, room temperature 120 minutes; read-out: PDE4 inhibiting activity (the concentration at an inhibition rate of 50%)
Method: The PDE4 inhibiting activity was measured in the following manner, employing Scintillation Proximity Assay (SPA). The specimen compound dissolved in dimethyl sulfoxide and diluted 10 fold with a buffer solution for reaction containing 50 mM Tris-HCl (pH of 7.4), 8.3 mMMgCl2, 1.7 mM EGTA, and 3 mg/mL bovine serum albumin (BSA) was added in 10 microliters in a 96-well assay plate. After PDE4 diluted 375 fold with the buffer solution for reaction was further added in 50 microliters, a [2,8-^3H]-Adenosine-3′,5′-cyclic phosphate triethylammonium salt diluted 1,000 fold with the buffer solution for reaction was added in 40 microliters, and the resultant was left to stand still at room temperature for 120 minutes. […] Subsequently, radioactivity was measured with a liquid scintillation counter for a 96-well plate. The inhibition rate of the compound represented by formula (1) to a control was calculated according to the following calculation formula, where the blank was prepared as the buffer solution for reaction only, with no enzyme preparation, and the control was prepared with the enzyme preparation and with only dimethyl sulfoxide instead of the specimen solution. […]

[1] = Stability test (storage of crystals, chemical purity by HPLC); type: physicochemical; conditions: for chemical stability (in words): thermal stability test, photostability test, accelerated stability test
Method: The I type crystal and the II type crystal of the compound represented by formula (1) were put in glass bottles (in about 300 mg each) and stored under various conditions. After the storage period, the chemical purity of the samples taken out was measured by HPLC. The conditions of each test were as follows.
Thermal stability test: 60° C., hermetically sealed, a period of 3 weeks
Photostability test: 25° C., 1.2 million lux hours (2,000 lux, for 25 days)
Accelerated stability test (hermetically sealed): 40° C., 75% RH*, a period of 1 month
Accelerated stability test (opened): 40° C., 75% RH*, a period of 1 month
As the result of evaluation of each stability, the amount of the compound represented by formula (1) contained in the crystal is presented in Table 1 as a residual ratio (a HPLC area percentage ratio to the initial value, expressed in percentage).

[2] = Hygroscopicity test (isothermal water vapor adsorption, DVS); type: physicochemical; conditions: at 95% RH, 25° C., relative to weight equilibrium value at 0% RH
Method: Isothermal adsorption measurement of the I type crystal and the II type crystal of the compound represented by formula (1) was performed, using a water vapor adsorption measurement instrument (available from Surface Measurement Systems Ltd., DVS ADVANTAGE 1) (with a sample of about 10 mg, at 25° C., at from 0% RH through 95% RH). As the result of evaluation of hygroscopicity, a weight increase rate at 95% RH (weight increase from initial value/initial value×100, *initial value: weight equilibrium value at 0% RH) is presented in Table 2.

[3] = Accelerated stability test (hermetically sealed): 40° C., 75% RH, 1 month
[4] = Accelerated stability test (opened): 40° C., 75% RH, 1 month
[5] = Photostability test: 25° C., 1.2 million lux hours (2,000 lux, 25 days)
[6] = Thermal stability test: 60° C., hermetically sealed, 3 weeks

Row | Structure (SMILES) | IC50 (PDE4) [nM] | Residual ratio (%) of compound represented by formula (1) [1, 3] [%] | Residual ratio (%) of compound represented by formula (1) [1, 4] [%] | Residual ratio (%) of compound represented by formula (1) ([1]; Initial value) [%] | Residual ratio (%) of compound represented by formula (1) [1, 5] [%] | Residual ratio (%) of compound represented by formula (1) [1, 6] [%] | chemical stability (in words) [1] | Weight increase rate (%) [2] [%]
1 | CC(C)(O)C(F)(F)Oc1ccc(-c2nccs2)c2oc(N3CC4CC(C3)N4)nc12 [compound represented by formula (1), 1-((2-(3,6-diazabicyclo[3.1.1]heptan-3-yl)-7-(thiazol-2-yl)benzo[d]oxazol-4-yl)oxy)-1,1-difluoro-2-methylpropan-2-ol] | < 100 | – | – | – | – | – | – | –
2 | CC(C)(O)C(F)(F)Oc1ccc(-c2nccs2)c2oc(N3CC4CC(C3)N4)nc12 [I type crystal, 1-((2-(3,6-diazabicyclo[3.1.1]heptan-3-yl)-7-(thiazol-2-yl)benzo[d]oxazol-4-yl)oxy)-1,1-difluoro-2-methylpropan-2-ol] | – | 100.1 | 100.1 | 100.0 | 100.1 | 99.8 | sufficient chemical stability | 0.6
3 | CC(C)(O)C(F)(F)Oc1ccc(-c2nccs2)c2oc(N3CC4CC(C3)N4)nc12 [II type crystal, 1-((2-(3,6-diazabicyclo[3.1.1]heptan-3-yl)-7-(thiazol-2-yl)benzo[d]oxazol-4-yl)oxy)-1,1-difluoro-2-methylpropan-2-ol] | – | 100.1 | 100.0 | 100.0 | 99.5 | 100.0 | sufficient chemical stability | 10.7

— patent US11512091B2, “Crystal of benzoxazole derivative” (MEIJI SEIKA PHARMA CO., LTD., priority 2018, dated 2022)
